{"source": "patent US8889699B2", "about": "“5-fluorouracil derivative” (Delta-Fly Pharma, Inc., priority 2009, dated 2014)", "molecular_target": "T1, DPD (Rattus norvegicus, UniProt O89000)", "T1 construct": "the obtained supernatant was used as a DPD enzyme solution or an OPRT enzyme solution; from tissue; host or cells: liver of 8-week old SD rat; 105,000 g supernatant of homogenate", "T1 sequence (O89000 1-1025)": "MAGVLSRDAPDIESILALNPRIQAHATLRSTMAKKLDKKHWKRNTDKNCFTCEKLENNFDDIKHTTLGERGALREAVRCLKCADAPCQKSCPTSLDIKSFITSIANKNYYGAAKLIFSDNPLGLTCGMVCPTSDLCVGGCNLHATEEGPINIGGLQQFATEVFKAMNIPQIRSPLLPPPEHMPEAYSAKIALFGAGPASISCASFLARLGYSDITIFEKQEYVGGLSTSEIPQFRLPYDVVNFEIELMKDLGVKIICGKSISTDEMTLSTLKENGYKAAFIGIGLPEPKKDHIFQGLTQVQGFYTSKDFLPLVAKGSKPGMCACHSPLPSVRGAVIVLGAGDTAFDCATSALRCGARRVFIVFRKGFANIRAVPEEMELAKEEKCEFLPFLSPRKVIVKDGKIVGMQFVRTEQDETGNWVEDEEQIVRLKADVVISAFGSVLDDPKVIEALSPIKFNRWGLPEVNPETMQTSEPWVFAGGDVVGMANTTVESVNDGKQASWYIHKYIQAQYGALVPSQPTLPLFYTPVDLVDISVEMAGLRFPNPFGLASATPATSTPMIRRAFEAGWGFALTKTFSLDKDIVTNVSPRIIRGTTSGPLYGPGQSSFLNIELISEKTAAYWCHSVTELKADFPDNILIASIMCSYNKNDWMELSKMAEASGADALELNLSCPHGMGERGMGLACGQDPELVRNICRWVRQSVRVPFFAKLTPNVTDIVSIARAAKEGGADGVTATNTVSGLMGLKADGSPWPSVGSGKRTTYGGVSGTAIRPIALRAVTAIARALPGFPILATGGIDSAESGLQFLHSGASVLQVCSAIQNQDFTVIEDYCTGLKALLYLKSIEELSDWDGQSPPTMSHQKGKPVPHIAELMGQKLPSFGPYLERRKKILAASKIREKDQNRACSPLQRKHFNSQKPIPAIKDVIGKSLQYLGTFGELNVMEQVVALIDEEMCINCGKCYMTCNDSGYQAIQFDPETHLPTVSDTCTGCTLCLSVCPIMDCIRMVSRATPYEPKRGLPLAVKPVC", "assay": "DPD inhibitory action in vitro (enzyme reaction, tritium-labeled 5-FU as substrate)", "type": "biochemical", "experimental": "The resulting product was diluted to concentrations of 1 mM, 100 μM, 10 μM, and 1 μM with a 10 mM potassium phosphate buffer solution (pH 6.0), thereby obtaining Test Liquids 1. The obtained Test Liquids 1 were separately added to the enzyme reaction solution described below to give final concentrations of 200 μM, 20 μM, 2 μM, and 0.2 μM. • (b) Test liquid preparation (2): As a DPD inhibitor, 5-chloro-2,4-dihydroxypyridine (CDHP; gimeracil) was dissolved to a concentration of 10 mM in a 10 mM potassium phosphate buffer solution (pH 6.0). The resulting product was diluted to concentrations of 1 mM, 100 μM, 10 μM, and 1 μM, thereby obtaining Test Liquids 2. The obtained Test Liquids 2 were separately added to the enzyme reaction solution to give final concentrations of 200 μM, 20 μM, 2 μM, and 0.2 μM. • (c) Test liquid preparation (3): As an OPRT inhibitor, citrazinic acid (Citra. A.) was dissolved to a concentration of 10 mM in 20 mM trishydroxyaminomethane-hydrochloric buffer solution (pH 8.0). Thereafter, the resulting product was diluted to concentrations of 1 mM, 100 μM, and 10 μM with a 10 mM potassium phosphate buffer solution, thereby obtaining Test Liquids (3). The obtained Test Liquids 3 were separately added to the enzyme reaction solution to give final concentrations of 200 μM, 20 μM, and 2 μM. • (d) Preparation of enzyme solution: The liver of an 8-week old SD rat was used as a DPD enzyme source, while human tumor cells that had been transplanted into a nude mouse and proliferated therein were used as an OPRT enzyme source. Specifically, immediately after a rat liver or successively-transplanted human tumor cells were extracted, a 50-mM tris-hydrochloric acid buffer solution (pH 8.0) containing 0.25 M saccharose, 5 mM magnesium chloride, and 1 mM dithreitol was added thereto to a concentration of 25% (w/v) and homogenized. Thereafter, ultracentrifugation was performed at 105,000 g for 60 minutes, and the obtained supernatant was used as a DPD enzyme solution or an OPRT enzyme solution. • (e) Enzyme reaction: A DPD enzyme reaction was carried out in accordance with the method of Tatsumi et al. (Gann, 78: 748-755 (1987)) using 5-FU labeled with tritium as a substrate. An OPRT enzyme reaction was carried out in accordance with the method of Shirasaka et al. (Cancer Res., 53: 4004-4009 (1993)) using 5-FU labeled with tritium as a substrate. Then, the activity of a control group (with no test compound) and test compound groups was measured. The percent inhibition of the test compound relative to DPD or OPRT was calculated using the following formula: [1-(the enzyme activity with the test compound/the enzyme activity of the control group)]×100(%).\nThe resulting product was diluted to concentrations of 1 mM, 100 μM, 10 μM, and 1 μM with a 10 mM potassium phosphate buffer solution (pH 6.0), thereby obtaining Test Liquids 1. The obtained Test Liquids 1 were separately added to the enzyme reaction solution described below to give final concentrations of 200 μM, 20 μM, 2 μM, and 0.2 μM. • (b) Preparation of enzyme solution: The liver of an 8-week old SD rat was used as a DPD enzyme source, while human tumor cells that had been transplanted into a nude mouse and proliferated therein were used as an OPRT enzyme source. Specifically, immediately after a rat liver or successively-transplanted human tumor cells were extracted, a 50-mM tris-hydrochloric acid buffer solution (pH 8.0) containing 0.25 M saccharose, 5 mM magnesium chloride, and 1 mM dithreitol was added thereto to a concentration of 25% (w/v) and homogenized. Thereafter, ultracentrifugation was performed at 105,000 g for 60 minutes, and the obtained supernatant was used as a DPD enzyme solution or an OPRT enzyme solution. • (c) Enzyme reaction: A DPD enzyme reaction was carried out in accordance with the method of Tatsumi et al. (Gann, 78: 748-755 (1987)) using 5-FU labeled with tritium as a substrate. […]", "key": {"[1]": {"settings": "0.2 μM, Table 2, read-out: DPD Inhibition (%)"}, "[2]": {"settings": "2 μM, Table 2, read-out: DPD Inhibition (%)"}}, "note": "Where two headings read alike, the source gives them in different places."}
{"smiles": "CCOCn1cc(F)c(=O)n(C(=O)c2cccc(C(=O)Oc3cc(OC(=O)c4cc(O)nc(O)c4)c(Cl)cn3)c2)c1=O", "note": "[Compound I-2, 3-{3-[4-(2,6-dihydroxyisonicotinoyloxy)-5-chloro-2-pyridyloxycarbonyl]benzoyl}-1-ethoxymethyl-5-fluorouracil]", "values": [{"measurement": "DPD Inhibitory Activity: Activity", "setting": "Conc. 0.2 μM, Table 1", "result": 0.613, "unit": "nmol/mL/min"}, {"measurement": "inhibition at 0.2 µM", "setting": "Conc. 0.2 μM, Table 1, read-out: DPD Inhibitory Activity: Inhibition", "result": 39.2, "unit": "%"}, {"measurement": "DPD Inhibitory Activity: Activity", "setting": "Conc. 2 μM, Table 1", "result": 0.157, "unit": "nmol/mL/min"}, {"measurement": "inhibition at 2 µM", "setting": "Conc. 2 μM, Table 1, read-out: DPD Inhibitory Activity: Inhibition", "result": 84.4, "unit": "%"}, {"measurement": "DPD Inhibitory Activity: Activity", "setting": "Conc. 20 μM, Table 1", "result": 0.075, "unit": "nmol/mL/min"}, {"measurement": "inhibition at 20 µM", "setting": "Conc. 20 μM, Table 1", "result": 92.6, "unit": "%"}, {"measurement": "DPD Inhibitory Activity: Activity", "setting": "Conc. 200 μM, Table 1", "result": 0.100, "unit": "nmol/mL/min"}, {"measurement": "inhibition at 200 µM", "setting": "Conc. 200 μM, Table 1", "result": 90, "unit": "%"}]}
{"smiles": "CCOCn1cc(F)c(=O)n(C(=O)c2cccc(C(=O)Oc3cc(OC(=O)c4cc(OC(C)=O)nc(OC(C)=O)c4)c(Cl)cn3)c2)c1=O", "note": "[Compound I-10, 3-{3-[4-(2,6-diacetyloxyisonicotinoyloxy)-5-chloro-2-pyridyloxycarbonyl]benzoyl}-1-ethoxymethyl-5-fluorouracil]", "values": [{"measurement": "inhibition at 0.2 µM", "setting": "[1]", "result": 43.9, "unit": "%"}, {"measurement": "inhibition at 2 µM", "setting": "[2]", "result": 77.2, "unit": "%"}]}
{"smiles": "CCOCn1cc(F)c(=O)n(C(=O)c2cccc(C(=O)Oc3cc(OC(=O)c4cc(OC(=O)CC)nc(OC(=O)CC)c4)c(Cl)cn3)c2)c1=O", "note": "[Compound I-11, 3-{3-[4-(2,6-dipropionyloxyisonicotinoyloxy)-5-chloro-2-pyridyloxycarbonyl]benzoyl}-1-ethoxymethyl-5-fluorouracil]", "values": [{"measurement": "IC50", "setting": "5-FU as substrate, Test Example 4, read-out: IC50 of DPD activity inhibition", "result": "~500", "unit": "nM"}, {"measurement": "DPD Inhibitory Activity: Activity", "setting": "Conc. 0.2 μM, Table 5", "result": 0.285, "unit": "nmol/mL/min"}, {"measurement": "inhibition at 0.2 µM", "setting": "Conc. 0.2 μM, Table 5, read-out: DPD Inhibitory Activity: Inhibition", "result": 56.8, "unit": "%"}, {"measurement": "DPD Inhibitory Activity: Activity", "setting": "Conc. 2 μM, Table 5", "result": 0.216, "unit": "nmol/mL/min"}, {"measurement": "inhibition at 2 µM", "setting": "Conc. 2 μM, Table 5, read-out: DPD Inhibitory Activity: Inhibition", "result": 67.2, "unit": "%"}, {"measurement": "DPD Inhibitory Activity: Activity", "setting": "Conc. 20 μM, Table 5", "result": 0.081, "unit": "nmol/mL/min"}, {"measurement": "inhibition at 20 µM", "setting": "Conc. 20 μM, Table 5", "result": 87.7, "unit": "%"}]}
{"smiles": "CCOCn1cc(F)c(=O)n(C(=O)c2cccc(C(=O)Oc3cc(OC(=O)c4cc(OC(=O)C5CCCC5)nc(OC(=O)C5CCCC5)c4)c(Cl)cn3)c2)c1=O", "note": "[Compound I-9, 3-{3-[4-(2,6-dicyclopentanecarbonyloxyisonicotinoyloxy)-5-chloro-2-pyridyloxycarbonyl]benzoyl}-1-ethoxymethyl-5-fluorouracil]", "values": [{"measurement": "inhibition at 0.2 µM", "setting": "[1]", "result": 45.7, "unit": "%"}, {"measurement": "inhibition at 2 µM", "setting": "[2]", "result": 74.6, "unit": "%"}]}
